Our source for the inhibition and IC50 values is patent US20260216216A1, “(N-ALKYLDIHYDROL-2H-OXAZINYL)-CANNABIDIOL AS ANTI-PROLIFERATIVE AGENT AND PROCESS FOR PREPARATION THEREOF” (COUNCIL OF SCIENTIFIC AND INDUSTRIAL RESEARCH, priority 2022, published 2026).

Like-named read-outs stand apart in the source and are kept apart here. A value given as a limit tells only on which side of the number the result lay.

For data set [1], the system named is HCT-116 (colorectal cancer) cell line. Briefly: SRB in-vitro cytotoxicity assay, HCT-116. As to conditions: Homo sapiens. The procedure: (§1) All the ring annulated analogues of cannabinoid were evaluated for their cytotoxicity against number of human cancer cell lines. To evaluate the in-vitro cytotoxicity, a sulphorhodamine B (SRB) assay was carried out. SRB is a negatively charged pink aminoxanthine dye that binds to the basic amino acid of cells in mildly acidic conditions and is removed in basic conditions. […] When cells reached 60-70% confluency, trypsinized and seeded in 96 well plates according to their inoculation density and incubated for 24 hours to attain their proper morphology. Next-day cells were again incubated for 48 hours with test compounds or paclitaxel (positive control). Next, cells were fixed with 50% of ice-cold TCA for 1 hours, washed with distilled water, and kept for air drying. Air-dried plates were then stained with 0.4% SRB dye for 30 minutes and subsequently with water and 1% v/v glacial acetic acid were then kept for air drying. […] The viability of cells is measured based on bound dye after fixation, which is measured by absorbance at 540 nm.

Data set [2] relates to MCF-7 (breast cancer) cell line. Briefly: SRB in-vitro cytotoxicity assay, MCF-7. As to conditions: Homo sapiens. The method, then: as §1
For data set [3], the system named is A549 (lung cancer) cell line. The experiment in a line: SRB in-vitro cytotoxicity assay, A549. As to conditions: Homo sapiens. The procedure: as §1
Data set [4] deals with PC-3 (prostate cancer) cell line. Briefly: SRB in-vitro cytotoxicity assay, PC-3. As to conditions: Homo sapiens. The procedure: as §1
Data set [5] deals with U251 (glioblastoma) cell line. The experiment in a line: SRB in-vitro cytotoxicity assay, U251. As to conditions: Homo sapiens. The method, then: as §1
The subject of data set [6] is Mia-PaCa (pancreatic cancer) cell line. Briefly: SRB in-vitro cytotoxicity assay, Mia-PaCa. The note with it: Homo sapiens. The procedure:
as §1

A short description of another data set: in vitro. As to conditions: human. The procedure:
as §1

Data set [7] relates to HEK-293 (normal cell lines). The experiment in a line: SRB in-vitro cytotoxicity assay, HEK-293. The note with it: Homo sapiens, HEK293, read-out: inhibition against HEK-293 cell lines. The procedure: as §1
Setting [8] is: HCT-116, 48 h, read-out: Cytotoxicity (in vitro cell inhibition) HCT-116.
Setting [9] is: HCT-116, read-out: inhibition against HCT-116 cell lines.
The mark [10] stands for this setting: MCF7, 48 h, read-out: Cytotoxicity (in vitro cell inhibition) MCF-7.
Setting [11] is: MCF7, read-out: inhibition against MCF-7 cell lines.
The mark [12] stands for this setting: A549, 48 h, read-out: Cytotoxicity (in vitro cell inhibition) A549.
Where [13] appears, read: A549, read-out: inhibition against A549 cell lines.
The mark [14] stands for this setting: 48 h, read-out: Cytotoxicity (in vitro cell inhibition) PC3.
Where [15] appears, read: PC-3, read-out: inhibition against PC3 cell lines.
Where [16] appears, read: U-251, 48 h, read-out: Cytotoxicity (in vitro cell inhibition) U251.
[17] abbreviates: MIA PaCa-2, 48 h, read-out: Cytotoxicity (in vitro cell inhibition) Mia-PaCa.
[18] abbreviates: MIA PaCa-2, read-out: inhibition against Mia-PaCa cell lines.
[19] abbreviates: U-251, read-out: inhibition against U251 cell lines.

With `C=C(C)[C@@H]1CCC(C)=C[C@H]1c1c(O)cc(CCCCC)cc1O` [IIa, cannabidiol], the inhibition at 20 µM in data set [1] (setting [8]) is > 70%; in data set [1] (setting [9]) it was > 70%; in data set [2] (setting [10]) it was 50 to 70%; in data set [2] (setting [11]), > 50%; in data set [3] (setting [12]), > 70%; in data set [3] (setting [13]), > 70%. Also, the inhibition at 20 µM in data set [4] (setting [14]) was 50 to 70%; in data set [4] (setting [15]), > 50%; in data set [5] (setting [16]) it was < 50%.
Take `C=C(C)[C@@H]1CCC(C)=C[C@H]1c1c(O)cc(CCCCC)c2c1OCN(C)C2` [Ia, (N-methyldihydrol-2H-oxazinyl)-cannabidiol]: the inhibition at 20 µM in data set [1] (setting [8]) was 50 to 70%; in data set [1] (setting [9]) it was > 50%; in data set [2] (setting [10]), > 70%; in data set [2] (setting [11]) it was > 70%; in data set [3] (setting [12]) it was > 70%; in data set [3] (setting [13]), > 70%. In addition, the inhibition at 20 µM in data set [6] (setting [17]), in data set [6] (setting [18]), in data set [4] (setting [14]), in data set [4] (setting [15]), in data set [5] (setting [16]) and in data set [5] (setting [19]) was > 70% throughout. Besides, the inhibition at 20 µM (in the data set “in vitro”; in data set [7]) was > 70% each time.
With `C=C(C)[C@@H]1CCC(C)=C[C@H]1c1c(O)cc(CCCCC)c2c1OCN(CCC)C2` [Ic, (N-propyldihydrol-2H-oxazinyl)-cannabidiol], the inhibition at 20 µM in data set [1] (setting [8]) was 50 to 70%; in data set [1] (setting [9]) it was > 50%; in data set [2] (setting [10]), > 70%; in data set [2] (setting [11]), > 70%; in data set [3] (setting [12]), 50 to 70%; in data set [3] (setting [13]), > 50%. The inhibition at 20 µM is > 70% in data set [6] (setting [17]); > 70% in data set [6] (setting [18]); 50 to 70% in data set [4] (setting [14]); > 50% in data set [4] (setting [15]); 50 to 70% in data set [5] (setting [16]); > 50% in data set [5] (setting [19]). Also, in “in vitro”, the inhibition at 20 µM was < 50%.
As for `C=C(C)[C@@H]1CCC(C)=C[C@H]1c1c(O)cc(CCCCC)c2c1OCN(CCCC)C2` [Id, (N-butyldihydrol-2H-oxazinyl)-cannabidiol], the inhibition at 20 µM in data set [1] (setting [8]), in data set [1] (setting [9]), in data set [2] (setting [10]), in data set [2] (setting [11]), in data set [3] (setting [12]) and in data set [3] (setting [13]) was > 70% throughout. In addition, the inhibition at 20 µM is > 70% in data set [6] (setting [17]); > 70% in data set [6] (setting [18]); > 70% in data set [4] (setting [14]); > 70% in data set [4] (setting [15]); 50 to 70% in data set [5] (setting [16]); > 50% in data set [5] (setting [19]). Moreover, in the data set “in vitro”, the inhibition at 20 µM was < 50%. Also, the IC50 worked out at 4.1 µM in data set [1] (HCT-116, read-out: IC50 against HCT-116); 2.89 µM in data set [2] (MCF7, read-out: IC50 against MCF-7); 9.36 µM in data set [3] (A549, read-out: IC50 against A549); 11.5 µM in data set [6] (MIA PaCa-2, read-out: IC50 against Mia-PaCa-2); 4.2 µM in data set [4] (read-out: IC50 against PC-3); 17.4 µM in data set [5] (U-251, read-out: IC50 against U251).
`C=C(C)[C@@H]1CCC(C)=C[C@H]1c1c(O)cc(CCCCC)c2c1OCN(CCCCCC)C2` [Ie, (N-hexyldihydrol-2H-oxazinyl)-cannabidiol]: the inhibition at 20 µM in data set [1] (setting [8]) was > 70%; in data set [1] (setting [9]) it was > 70%; in data set [2] (setting [10]) it was > 70%; in data set [2] (setting [11]) it was > 70%; in data set [3] (setting [12]) it was < 50%; in data set [6] (setting [17]) it was < 50%. The inhibition at 20 µM in data set [4] (setting [14]) and in data set [5] (setting [16]) was < 50% each time. Further, the inhibition at 48 h, 20 µM in “in vitro” is < 50%.
For `C=C(C)[C@@H]1CCC(C)=C[C@H]1c1c(O)cc(CCCCC)c2c1OCN(C1CC1)C2` [Ig, (N-cyclopropyldihydrol-2H-oxazinyl)-cannabidiol], the inhibition at 20 µM is 50 to 70% in data set [1] (setting [8]); > 50% in data set [1] (setting [9]); 50 to 70% in data set [2] (setting [10]); > 50% in data set [2] (setting [11]); 50 to 70% in data set [3] (setting [12]); > 50% in data set [3] (setting [13]). Further, the inhibition at 20 µM in data set [6] (setting [17]) is < 50%; in data set [4] (setting [14]), 50 to 70%; in data set [4] (setting [15]) it was > 50%; in data set [5] (setting [16]) it was < 50%; in “in vitro” it was < 50%.
For `C=C(C)[C@@H]1CCC(C)=C[C@H]1c1c(O)cc(CCCCC)c2c1OCN(C1CCCCCC1)C2` [Ii, (N-cycloheptyldihydrol-2H-oxazinyl)-cannabidiol], the inhibition at 20 µM was 50 to 70% in data set [1] (setting [8]); > 50% in data set [1] (setting [9]); > 70% in data set [2] (setting [10]); > 70% in data set [2] (setting [11]); > 70% in data set [3] (setting [12]); > 70% in data set [3] (setting [13]). Also, the inhibition at 20 µM in data set [6] (setting [17]) was > 70%; in data set [6] (setting [18]), > 70%; in data set [4] (setting [14]), 50 to 70%; in data set [4] (setting [15]) it was > 50%; in data set [5] (setting [16]) it was < 50%. Also, the inhibition at 48 h, 20 µM in “in vitro” is < 50%.
`C=C(C)[C@@H]1CCC(C)=C[C@H]1c1c(O)cc(CCCCC)c2c1OCN(c1ccccc1)C2` [Ij, (N-phenyldihydrol-2H-oxazinyl)-cannabidiol]: the inhibition at 20 µM in data set [1] (setting [8]), in data set [2] (setting [10]), in data set [3] (setting [12]), in data set [6] (setting [17]), in data set [4] (setting [14]) and in data set [5] (setting [16]) was < 50% in each case. In addition, the inhibition at 48 h, 20 µM in “in vitro” is < 50%.
As for `C=C(C)[C@@H]1CCC(C)=C[C@H]1c1c(O)cc(CCCCC)c2c1OCN(c1ccc(C(C)C)cc1)C2` [Ik, (N-isopropylphenyldihydrol-2H-oxazinyl)-cannabidiol], the inhibition at 20 µM in data set [1] (setting [8]), in data set [2] (setting [10]), in data set [3] (setting [12]), in data set [6] (setting [17]), in data set [4] (setting [14]) and in data set [5] (setting [16]) was < 50% each time. Moreover, the inhibition at 48 h, 20 µM in “in vitro” is < 50%.
`C=C(C)[C@@H]1CCC(C)=C[C@H]1c1c(O)cc(CCCCC)c2c1OCN(c1ccc(OC(F)(F)F)cc1)C2` [Il, (N-trifluoromethoxyphenyldihydrol-2H-oxazinyl)-cannabidiol]: the inhibition at 20 µM in data set [1] (setting [8]), in data set [2] (setting [10]), in data set [3] (setting [12]), in data set [6] (setting [17]), in data set [4] (setting [14]) and in data set [5] (setting [16]) was < 50% each time. The inhibition at 48 h, 20 µM in the data set “in vitro” was < 50%.
As to `C=C(C)[C@@H]1CCC(C)=C[C@H]1c1c(O)cc(CCCCC)c2c1OCN(c1cnc3ccccc3c1)C2` [Im, (N-quinolinedihydrol-2H-oxazinyl)-cannabidiol], the inhibition at 20 µM in data set [1] (setting [8]), in data set [2] (setting [10]), in data set [3] (setting [12]), in data set [6] (setting [17]), in data set [4] (setting [14]) and in data set [5] (setting [16]) was < 50% throughout. For the same compound, the inhibition at 48 h, 20 µM in the data set “in vitro” is < 50%.
Consider `C=C(C)[C@@H]1CCC(C)=C[C@H]1c1c(O)cc(CCCCC)c2c1OCN(Cc1ccccc1)C2` [In, (N-benzyldihydrol-2H-oxazinyl)-cannabidiol], for which the inhibition at 20 µM in data set [1] (setting [9]) is > 50%; in data set [2] (setting [10]), < 50%; in data set [3] (setting [13]) it was > 50%; in data set [6] (setting [17]), < 50%; in data set [4] (setting [15]) it was > 50%; in data set [5] (setting [16]), < 50%. Besides, in the data set “in vitro”, the inhibition at 48 h, 20 µM was < 50%.
Turning to `C=C(C)[C@@H]1CCC(C)=C[C@H]1c1c(O)cc(CCCCC)c2c1OCN(c1ccccc1F)C2` [Io, (N-2-fluorophenyldihydrol-2H-oxazinyl)-cannabidiol], the inhibition at 20 µM in data set [1] (setting [8]), in data set [2] (setting [10]), in data set [3] (setting [12]), in data set [6] (setting [17]), in data set [4] (setting [14]) and in data set [5] (setting [16]) was < 50% throughout. Also, the inhibition at 48 h, 20 µM in the data set “in vitro” was < 50%.

For orientation: inhibition means the percentage by which the read-out fell short of the control. As a reminder, the IC50 is the point on the concentration scale where inhibition reaches its midpoint.
